Test results as given in the supplement of paper PMC10307832.

Key:
Assay in all cases: relative viability (nuclei count vs DMSO), 5 days (fraction); higher = more cells survive
[1] = compound: C/C(=N\NC(=S)N1CCC1)/C2=CC=CC=N2 + C[C@@H](Oc1cc(-c2cnn(C3CCNCC3)c2)cnc1N)c1c(Cl)ccc(F)c1Cl [Crizotinib] (partner 1 µM)
How it was run: (§1)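 The day after seeding in 1536-well plates, lung cancer cell lines were treated by pin tool with a single drug, or with a fixed anchor-drug dose together with five library-drug doses (not always all listed) in √10 steps. After 5 days, a combined fix-and-stain solution (final 0.05% Triton X-100, 1% formaldehyde, 1 ug/ml Hoechst) was added. Nuclei counted on 4× images gave relative viability as treated counts over vehicle counts, reported as the median of duplicate plates.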

[2] = compound: C/C(=N\NC(=S)N1CCC1)/C2=CC=CC=N2 + COc1cccc2cc(-c3nc([C@H]4CC[C@H](C(=O)O)CC4)n4ncnc(N)c34)[nH]c12 [OSI-027] (partner 0.5 µM)
How it was run: as §1

[3] = compound: C/C(=N\NC(=S)N1CCC1)/C2=CC=CC=N2 + C[C@]1(O)C[C@@H](c2nc(-c3ccc4ccc(-c5ccccc5)nc4c3)c3c(N)nccn32)C1 [Linsitinib] (partner 1 µM)
How it was run: as §1

[4] = compound: C/C(=N\NC(=S)N1CCC1)/C2=CC=CC=N2 + Cc1cc(Nc2cc(N3CCN(C)CC3)nc(Sc3ccc(NC(=O)C4CC4)cc3)n2)n[nH]1 [Tozasertib] (partner 0.1 µM)
How it was run: as §1

Cell Line	relative viability ([1]; first compound 0.05 µM)	relative viability ([1]; first compound 0.1581 µM)	relative viability ([1]; first compound 0.5 µM)	relative viability ([1]; first compound 1.581 µM)	relative viability ([1]; first compound 5 µM)	relative viability ([2]; first compound 0.05 µM)	relative viability ([2]; first compound 0.1581 µM)	relative viability ([2]; first compound 0.5 µM)	relative viability ([2]; first compound 1.581 µM)	relative viability ([2]; first compound 5 µM)	relative viability ([3]; first compound 0.05 µM)	relative viability ([3]; first compound 0.1581 µM)	relative viability ([3]; first compound 0.5 µM)	relative viability ([3]; first compound 1.581 µM)	relative viability ([3]; first compound 5 µM)	relative viability ([4]; first compound 0.05 µM)	relative viability ([4]; first compound 0.1581 µM)	relative viability ([4]; first compound 0.5 µM)	relative viability ([4]; first compound 1.581 µM)	relative viability ([4]; first compound 5 µM)
COR-L 105	0.231	0.252	0.224	0.205	0.256	0.251	0.329	0.338	0.255	0.248	0.343	0.265	0.265	0.332	0.261	0.205	0.245	0.229	0.231	0.22
ABC-1	0.23	0.189	0.2	0.172	0.142	0.257	0.191	0.239	0.226	0.2	0.247	0.239	0.24	0.221	0.207	0.193	0.146	0.152	0.168	0.163
HCC-15	0.21	0.412	0.0685	0.073	0.0642	0.079	0.0907	0.0888	0.0899	0.0898	0.237	0.416	0.103	0.102	0.0909	0.0765	0.0513	0.112	0.0654	0.0641
PC-3 [JPC-3]	0.594	0.984	0.361	0.301	0.252	0.271	0.301	0.265	0.25	0.214	0.647	0.973	0.469	0.313	0.311	0.612	0.474	0.3	0.281	0.241
NCI-H1993	0.588	0.536	0.571	0.509	0.443	0.519	0.542	0.516	0.541	0.545	0.643	0.703	0.58	0.614	0.53	0.479	0.466	0.449	0.513	0.51
NCI-H358	0.13	0.157	0.14	0.102	0.144	0.0802	0.0946	0.0796	0.0601	0.0821	0.179	0.196	0.163	0.125	0.181	0.0651	0.0617	0.0695	0.0742	0.0612
NCI-H1915	0.469	0.843	0.169	0.152	0.134	0.184	0.165	0.176	0.179	0.163	0.523	1.03	0.228	0.176	0.153	0.178	0.137	0.129	0.131	0.139
RERF-LC-KJ	0.224	0.263	0.253	0.239	0.242	0.266	0.258	0.251	0.221	0.243	0.233	0.253	0.227	0.243	0.229	0.203	0.208	0.246	0.217	0.242
